Patent US6964959B2, “Use of a methylol-containing compound to treat tumors” (Carter Wallace, Inc., priority 1999, dated 2005)

Legend:
[1] = tested on: MDR-transfected glioblastoma cells; experiment: Cytotoxicity in MDR-transfected glioblastoma cells; details: transfected vs untransfected glioblastoma cells
Description: The neoplastic cell lines used in the survey were standard tumor cell lines, e.g., PA1 human ovarian cell line, SKOV3 human ovarian cell line, HT29 human colon tumor cell line, DU145 human prostate tumor cell line, U251 human glioblastoma cell line, U251-MDR human glioblastoma cell line transfected with DNA encoding MDR, T98G human glioblastoma cell line, SP-1 human leukemia cell line, and Daudi human leukemia cell line.
Glioblastoma cells were transfected with a gene encoding multiple drug resistance (MDR).

human cancer cell lines = experiment: Cytotoxic activity of taurultam in human cancer cell lines; format: cell-based
Description: The cytotoxic activity of taurultam was evaluated in vitro using the same human cancer cell lines as described above. […] The data also indicate that the cytotoxic effect is directly proportionate to the number of methylol molecules liberated per molecule of methylol-containing compound

Row | Compound | resistance of MDR-transfected cells [1] | induction of apoptotic death (human cancer cell lines; cancer cells vs normal control cells) | cytotoxic activity relative to the activity observed with taurolidine (human cancer cell lines; same human cancer cell lines as for taurolidine)
1 | COc1cccc2c1C(=O)c1c(O)c3c(c(O)c1C2=O)C[C@@](O)(C(=O)CO)C[C@@H]3O[C@H]1C[C@H](N)[C@H](O)[C@H](C)O1 [adriamycin] | 100-1000 times |  | 
2 | O=S1(=O)CCNCN1 [taurultam] |  | induced apoptotic death of cancer cells but not normal control cells | approximately 75%
